Assay results: US9211310B2, “Use of a Chinese medicine composition in preparing medicaments for treating secondary prevention of myocardial infarction” (TASLY PHARMACEUTICAL GROUP CO., LTD, priority 2010, dated 2015)

Tested on: patients after acute myocardial infarction
Experiment: Life quality, Seattle Angina Questionnaire (SAQ), same clinical trial
Assay type: in vivo, human
Details: PP
Text: 3508 patients who were in accordance with the diagnostic standards of AMI for 28 days to 2 years and differentiated as Qi deficiency and blood stagnation syndrome by TCM were studied. 0.5 g Chinese medicine composition prepared by the method of EXAMPLE 1 (Coded as QSYQ) was administrated half an hour after meal, 3 times per day.
There were 19 questions in the Seattle angina questionnaire (SAQ), including 5 parts: physical limitation (PL), anginal stability (AS), anginal frequency (AF), treatment satisfaction (TS) and disease perception (DP). After being given necessary explanation by doctors, the questions were answered independently by patients.
They included the overall survival time, angina pectoris score, TCM symptom score and life quality score, where angina pectoris score, TCM symptom score and life quality score were evaluated at randomization, in 1st, 3rd, 6th, 9th, 12th month after treatment and 18th month after follow-up.
All evaluation results of SAQ were described during the period of observation, and Wilcoxon rank sum test was used for inter-group comparison.
The evaluation results in the SAQ were depicted in different observations, and inter-group comparison was tested by Wilcoxon Rank-sum test.

## CC(=O)Oc1ccccc1C(=O)O [Control group, aspirine]
12 months after treatment
  SAQ Question 1-2 Severely limited, percent of patients: (0.00%)
  SAQ Question 1-2 Slightly limited, number of patients: 45
  SAQ Question 1-2 Slightly limited, percent of patients: (3.16%)
  SAQ Question 1-6: Mildly limited, patients (%): (13.45%)
  SAQ Question 1-6: Moderately limited, patients (%): (9.58%)
  SAQ Question 1-6: Not limited, patients (%): (42.39%)
  SAQ Question 1-6: Other reasons, patients (%): (0.92%)
  SAQ Question 1-6: Severely limited, patients (%): (1.76%)
  SAQ Question 1-6: Slightly limited, patients (%): (31.90%)
  SAQ Question 1-7: Mildly limited, patients (%): (20.24%)
  SAQ Question 1-7: Moderately limited, patients (%): (9.84%)
  SAQ Question 1-7: Not limited, patients (%): (21.81%)
  SAQ Question 1-7: Other limited, patients (%): (3.56%)
  SAQ Question 1-7: Severely limited, patients (%): (12.05%)
  SAQ Question 1-7: Slightly limited, patients (%): (32.50%)
  SAQ Question 1-8: Mildly limited, patients (%): (24.98%)
  SAQ Question 1-8: Moderately limited, patients (%): (12.17%)
  SAQ Question 1-8: Not limited, patients (%): (14.53%)
  SAQ Question 1-8: Other reasons, patients (%): (4.22%)
  SAQ Question 1-8: Severely limited, patients (%): (15.68%)
  SAQ Question 1-8: Slightly limited, patients (%): (28.42%)
Baseline
  8th question: Dissatisfied, patients (%): (0.87%)
  8th question: Highly satisfied, patients (%): (14.83%)
  8th question: Mostly dissatisfied, patients (%): (6.61%)
  8th question: Mostly satisfied, patients (%): (45.16%)
  8th question: Partly satisfied, patients (%): (32.53%)
  9th question: Few, patients (%): (20.91%)
  9th question: Mild, patients (%): (37.01%)
  9th question: Moderate, patients (%): (26.99%)
  9th question: Severe, patients (%): (3.34%)
  9th question: Uneffective, patients (%): (11.76%)
  10th question: Dissatisfied, patients (%): (25.25%)
  10th question: Highly satisfied, patients (%): (2.07%)
  10th question: Mostly dissatisfied, patients (%): (24.11%)
  10th question: Mostly satisfied, patients (%): (16.30%)
  10th question: Partly satisfied, patients (%): (32.26%)
  11th question: Continuously worried, patients (%): (9.21%)
  11th question: No worried, patients (%): (3.94%)
  11th question: Occasionally worried, patients (%): (41.32%)
  11th question: Often worried, patients (%): (25.10%)
  11th question: Seldom worried, patients (%): (20.43%)
  SAQ 4th question, 1-2 times per week: % of patients: (20.17%)
  SAQ 4th question, 1-2 times per week: number of patients: 301
  SAQ 4th question, 1-3 times per day: % of patients: (8.78%)
  SAQ 4th question, 1-3 times per day: number of patients: 131
  SAQ 4th question, <1 time per week: % of patients: (9.52%)
  SAQ 4th question, <1 time per week: number of patients: 142
  SAQ 4th question, Not used: % of patients: (43.16%)
  SAQ 4th question, Not used: number of patients: 644
  SAQ 4th question, ≧3 times per week: % of patients: (17.43%)
  SAQ 4th question, ≧3 times per week: number of patients: 260
  SAQ 4th question, ≧4 times per day: % of patients: (0.94%)
  SAQ 4th question, ≧4 times per day: number of patients: 14
  SAQ 5th question, Few: % of patients: (19.21%)
  SAQ 5th question, Few: number of patients: 287
  SAQ 5th question, Mild: % of patients: (31.26%)
  SAQ 5th question, Mild: number of patients: 467
  SAQ 5th question, Moderate: % of patients: (21.29%)
  SAQ 5th question, Moderate: number of patients: 318
  SAQ 5th question, None: % of patients: (22.02%)
  SAQ 5th question, None: number of patients: 329
  SAQ 5th question, Not medicated by doctors: % of patients: (3.01%)
  SAQ 5th question, Not medicated by doctors: number of patients: 45
  SAQ 5th question, Severe: % of patients: (3.21%)
  SAQ 5th question, Severe: number of patients: 48
  SAQ 6th question, Dissatisfied: % of patients: (1.14%)
  SAQ 6th question, Dissatisfied: number of patients: 17
  SAQ 6th question, Highly satisfied: % of patients: (14.90%)
  SAQ 6th question, Highly satisfied: number of patients: 223
  SAQ 6th question, Mostly dissatisfied: % of patients: (6.48%)
  SAQ 6th question, Mostly dissatisfied: number of patients: 97
  SAQ 6th question, Mostly satisfied: % of patients: (44.29%)
  SAQ 6th question, Mostly satisfied: number of patients: 663
  SAQ 6th question, Partly satisfied: % of patients: (33.20%)
  SAQ 6th question, Partly satisfied: number of patients: 497
  SAQ 7th question, Dissatisfied: % of patients: (0.33%)
  SAQ 7th question, Dissatisfied: number of patients: 5
